Assay results as given in publication PMC7914897, “Cytotoxic Potential of a-Azepano- and 3-Amino-3,4-SeCo-Triterpenoids” (International Journal of Molecular Sciences, 2021).

Columns and labels:
[1] = test system: NIH 3T3 (non-malignant mouse fibroblasts); test: SRB cytotoxicity assay, 72 h; format: cell-based; conditions: Mus musculus, NIH3T3; NIH 3T3, 72 h, cut-off 30 µM; read-out: EC50
Procedure, shortened: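 Cytotoxicity is measured colorimetrically with sulforhodamine B after 72 h exposure to compound concentrations of 0–30 µM, added 24 h after seeding of exponentially growing cells. Survival relative to untreated wells yields EC50.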

[2] = test system: SR (Leukemia); test: NCI-60 screen (SRB, 48 h); format: cell-based
[3] = test system: MDA-MB-435 (Melanoma); test: NCI-60 screen (SRB, 48 h); format: cell-based; conditions: for GI50 / IC (TGI) / CC50: Homo sapiens; for GI50 / CC50: MDA-MB-435; for IC (TGI): MDA-MB-435, 48 h, read-out: TGI; for CC50: read-out: LC50 (the source's name)
[4] = test system: MDA-MB-468 (Breast cancer); test: cells; conditions: Homo sapiens; for GI50: MDA-MB-468; for IC (TGI): MDA-MB-468, 48 h, read-out: TGI; for CC50: MDA-MB-468, read-out: LC50
[5] = test system: NSC lung cancer subpanel; test: NCI-60 screen, subpanel; conditions: Homo sapiens; for IC (TGI): 48 h, read-out: TGI MG_MID; for GI50: read-out: GI50 MG_MID; for CC50: read-out: LC50 MG_MID
[6] = test system: Ovarian Cancer subpanel; test: NCI-60 screen, subpanel; conditions: Homo sapiens; for IC (TGI): 48 h, read-out: TGI MG_MID; for GI50: read-out: GI50 MG_MID; for CC50: read-out: LC50 MG_MID
[7] = test system: MOLT-4 (Leukemia); test: NCI-60 screen (SRB, 48 h); conditions: Homo sapiens; for GI50: MOLT-4; for IC (TGI): MOLT-4, 48 h, read-out: TGI; for CC50: MOLT-4, read-out: LC50
[8] = test system: HOP-62 (NSC lung cancer); test: NCI-60 screen (SRB, 48 h); conditions: Homo sapiens; for GI50: HOP-62; for IC (TGI): HOP-62, 48 h, read-out: TGI; for CC50: HOP-62, read-out: LC50
[9] = test system: HOP-92 (NSC lung cancer); test: NCI-60 screen (SRB, 48 h); conditions: Homo sapiens; for GI50: HOP-92; for IC (TGI): HOP-92, 48 h, read-out: TGI; for CC50: HOP-92, read-out: LC50
[10] = test system: COLO 205 (Colon cancer); test: NCI-60 screen (SRB, 48 h); conditions: Homo sapiens; for GI50: COLO 205; for IC (TGI): COLO 205, 48 h, read-out: TGI; for CC50: COLO 205, read-out: LC50
[11] = test system: HCT-116 (Colon cancer); test: NCI-60 screen (SRB, 48 h); conditions: Homo sapiens; for GI50: HCT-116; for IC (TGI): read-out: TGI; for CC50: HCT-116, read-out: LC50
[12] = test system: SF-268 (CNS cancer); test: NCI-60 screen (SRB, 48 h); conditions: Homo sapiens; for GI50: SF-268; for IC (TGI): SF-268, 48 h, read-out: TGI; for CC50: SF-268, read-out: LC50
[13] = test system: SF-539 (CNS cancer); test: NCI-60 screen (SRB, 48 h); conditions: Homo sapiens; for GI50: SF-539; for IC (TGI): SF-539, 48 h, read-out: TGI; for CC50: SF-539, read-out: LC50
[14] = test system: SNB-75 (CNS cancer); test: NCI-60 screen (SRB, 48 h); conditions: for GI50 / IC (TGI) / CC50: Homo sapiens; for GI50: SNB-75; for IC (TGI): SNB-75, 48 h, read-out: TGI; for CC50: SNB-75, read-out: LC50
[15] = test system: M14 (Melanoma); test: NCI-60 screen (SRB, 48 h); conditions: Homo sapiens; for GI50: M14; for IC (TGI): M14, 48 h, read-out: TGI; for CC50: M14, read-out: LC50
[16] = test system: UACC-62 (Melanoma); test: NCI-60 screen (SRB, 48 h); conditions: Homo sapiens; for GI50: UACC-62; for IC (TGI): UACC-62, 48 h, read-out: TGI; for CC50: UACC-62, read-out: LC50
[17] = test system: OVCAR-5 (Ovarian cancer); test: NCI-60 screen (SRB, 48 h); conditions: for GI50 / IC (TGI) / CC50: Homo sapiens; for GI50: OVCAR-5; for IC (TGI): OVCAR-5, 48 h, read-out: TGI; for CC50: OVCAR-5, read-out: LC50
[18] = test system: OVCAR-8 (Ovarian cancer); test: NCI-60 screen (SRB, 48 h); conditions: Homo sapiens; for GI50: OVCAR-8; for IC (TGI): OVCAR-8, 48 h, read-out: TGI; for CC50: OVCAR-8, read-out: LC50
[19] = test system: SK-OV-3 (Ovarian cancer); test: NCI-60 screen (SRB, 48 h); conditions: Homo sapiens; for GI50: SK-OV-3; for IC (TGI): SK-OV-3, 48 h, read-out: TGI; for CC50: SK-OV-3, read-out: LC50
[20] = test system: 786-0 (Renal cancer); test: NCI-60 screen (SRB, 48 h); conditions: Homo sapiens; for GI50: 786-0; for IC (TGI): 786-0, 48 h, read-out: TGI; for CC50: 786-0, read-out: LC50
[21] = test system: CAKI-1 (Renal cancer); test: NCI-60 screen (SRB, 48 h); conditions: for GI50 / IC (TGI) / CC50: Homo sapiens; for GI50: CAKI-1; for IC (TGI): CAKI-1, 48 h, read-out: TGI; for CC50: CAKI-1, read-out: LC50
[22] = test system: RXF 393 (Renal cancer); test: NCI-60 screen (SRB, 48 h); conditions: Homo sapiens; for GI50: RXF 393; for IC (TGI): RXF 393, 48 h, read-out: TGI; for CC50: RXF 393, read-out: LC50
[23] = test system: PC-3 (Prostate cancer); test: NCI-60 screen (SRB, 48 h); conditions: Homo sapiens; for GI50: PC-3; for IC (TGI): PC-3, 48 h, read-out: TGI; for CC50: PC-3, read-out: LC50

C[C@H]1[C@H](C)CC[C@]2(CO)CC[C@]3(C)C(=CC[C@@H]4[C@@]5(C)CCCNC(C)(C)[C@@H]5CC[C@]43C)[C@H]12 [Compound 4, azepanouvaol]
EC50 [1]: 2.77 ± 0.4 µM
TGI [2]: 3.13 µM
GI50 ([2]; Homo sapiens): 1.18 µM
GI50 [3]: 1.59 µM
IC (TGI) [3]: 3.21 µM
CC50 [3]: 6.49 µM
GI50 [4]: 1.7 µM
IC (TGI) [4]: 3.44 µM
CC50 [4]: 6.98 µM
IC (TGI) [5]: 3.4 µM
GI50 [5]: 1.74 µM
CC50 [5]: 6.37 µM
IC (TGI) [6]: 3.59 µM
GI50 [6]: 1.91 µM
CC50 [6]: 11.4 µM
GI50 [7]: 1.37 µM
IC (TGI) [7]: 3.15 µM
CC50 [7]: 7.25 µM
GI50 [8]: 1.81 µM
IC (TGI) [8]: 3.49 µM
CC50 [8]: 6.52 µM
GI50 [9]: 1.52 µM
IC (TGI) [9]: 3.19 µM
CC50 [9]: 6.67 µM
GI50 [10]: 1.74 µM
IC (TGI) [10]: 3.46 µM
CC50 [10]: 6.86 µM
GI50 [11]: 1.49 µM
activity at 10 µM ([11]; HCT-116, 48 h, read-out: Growth % of the Most Sensitive Cell Lines): -94.7%
IC (TGI) ([11]; HCT-116, 48 h): 2.81 µM
CC50 [11]: 5.31 µM
GI50 [12]: 1.79 µM
IC (TGI) [12]: 3.5 µM
CC50 [12]: 6.84 µM
GI50 [13]: 1.69 µM
IC (TGI) [13]: 3.16 µM
CC50 [13]: 5.9 µM
GI50 [14]: 1.49 µM
IC (TGI) [14]: 2.9 µM
CC50 [14]: 5.63 µM
GI50 [15]: 1.61 µM
IC (TGI) [15]: 3.12 µM
CC50 [15]: 6.04 µM
GI50 [16]: 1.85 µM
IC (TGI) [16]: 3.35 µM
CC50 [16]: 6.06 µM
GI50 [17]: 1.69 µM
IC (TGI) [17]: 3.18 µM
CC50 [17]: 5.99 µM
GI50 [18]: 1.96 µM
IC (TGI) [18]: 3.61 µM
CC50 [18]: 6.67 µM
GI50 [19]: 2.54 µM
IC (TGI) [19]: 3.97 µM
CC50 [19]: 35.2 µM
GI50 [20]: 1.6 µM
IC (TGI) [20]: 3.06 µM
CC50 [20]: 5.85 µM
GI50 [21]: 1.62 µM
IC (TGI) [21]: 3.23 µM
CC50 [21]: 6.43 µM
GI50 [22]: 1.81 µM
IC (TGI) [22]: 3.51 µM
CC50 [22]: 6.79 µM
GI50 [23]: 1.55 µM
IC (TGI) [23]: 2.97 µM
CC50 [23]: 5.66 µM

CC1(C)NCCC[C@]2(C)[C@H]3C=CC4=C5C[C@@](C)(CO)CC[C@]5(C)CC[C@@]4(C)[C@]3(C)CC[C@@H]12 [Compound 6, azepano-glycyrrhetol-diene]
EC50 [1]: 11.7 ± 1.4 µM
TGI [2]: 7.17 µM
GI50 ([2]; Homo sapiens): 2.42 µM
CC50 ([2]; Homo sapiens, read-out: LC50 (the source's name)): > 100 µM
GI50 [3]: 3.76 µM
IC (TGI) [3]: 14 µM
CC50 [3]: 43 µM
Growth % of the Most Sensitive Cell Lines ([3]; MDA-MB-435, 1 dose 10 µM): −95.56%
GI50 [4]: 10.4 µM
IC (TGI) [4]: 24 µM
CC50 [4]: 55.1 µM
IC (TGI) [5]: 11.2 µM
GI50 [5]: 3.17 µM
CC50 [5]: 39.1 µM
IC (TGI) [6]: 15.4 µM
GI50 [6]: 4.67 µM
CC50 [6]: 41.9 µM
GI50 [7]: 2.46 µM
IC (TGI) [7]: 6.8 µM
CC50 [7]: 38.2 µM
GI50 [8]: 2.3 µM
IC (TGI) [8]: 5.16 µM
CC50 [8]: 16.7 µM
GI50 [9]: 3.1 µM
IC (TGI) [9]: 14.6 µM
CC50 [9]: 47 µM
GI50 [10]: 3.63 µM
IC (TGI) [10]: 13.9 µM
CC50 [10]: 43 µM
GI50 [11]: 2.73 µM
IC (TGI) ([11]; HCT-116, 48 h): 10.6 µM
CC50 [11]: 52.9 µM
GI50 [12]: 3.27 µM
IC (TGI) [12]: 11.6 µM
CC50 [12]: 49.6 µM
GI50 [13]: 2.69 µM
IC (TGI) [13]: 9.26 µM
CC50 [13]: 33 µM
GI50 [14]: 3.43 µM
IC (TGI) [14]: 14.8 µM
CC50 [14]: 46.5 µM
Growth % of the Most Sensitive Cell Lines ([14]; SNB-75, 1 dose 10 µM): −97.70%
GI50 [15]: 3.91 µM
IC (TGI) [15]: 14.8 µM
CC50 [15]: 41.5 µM
GI50 [16]: 3.13 µM
IC (TGI) [16]: 10.9 µM
CC50 [16]: 37 µM
GI50 [17]: 1.24 µM
IC (TGI) [17]: 25.3 µM
CC50 [17]: 51.6 µM
Growth % of the Most Sensitive Cell Lines ([17]; OVCAR-5, 1 dose 10 µM): −98.74%
GI50 [18]: 2.55 µM
IC (TGI) [18]: 6.66 µM
CC50 [18]: 30.8 µM
GI50 [19]: 14.5 µM
IC (TGI) [19]: 28.6 µM
CC50 [19]: 56.2 µM
GI50 [20]: 2.66 µM
IC (TGI) [20]: 8.59 µM
CC50 [20]: 40.9 µM
Growth % of the Most Sensitive Cell Lines ([21]; CAKI-1, 1 dose 10 µM): −96.49%
GI50 [21]: 3.7 µM
IC (TGI) [21]: 13.8 µM
CC50 [21]: 39.3 µM
GI50 [22]: 1.84 µM
IC (TGI) [22]: 4.15 µM
CC50 [22]: 9.35 µM
GI50 [23]: 3.05 µM
IC (TGI) [23]: 12.3 µM
CC50 [23]: 38.7 µM
